The text below walks through data of PMC6345779, “Hypoculoside, a sphingoid base-like compound from Acremonium disrupts the membrane integrity of yeast cells” (Scientific Reports, 2019).

In assay [1] the test system is Staphylococcus aureus. Details: method as in PMID 23128426. As to conditions: also disrupt cell membrane; cited from earlier work.
Assay [2] concerns vps35Δ, pep8Δ, vps20Δ, vps27Δ and vps36Δ strains. The assay is described as follows: Single-mutant sensitivity growth assay of deletion strains in YPD medium. As to conditions: for growth of the 5 hypoculoside-sensitive mutants compared with wild type strain: 20 µM, vps35, pep8, vps20, vps27, vps36. It counts as cell-based, Saccharomyces cerevisiae. On the procedure:
Figure 3 Homozygous profiling of hypoculoside in Saccharomyces cerevisiae. (A) logFC (Fitness Coefficient) was plotted against P-value for the 3702 mutants that were analyzed by HOP. The more negative the logFC value of a mutant, more sensitive is the mutant to hypoculoside. Mutants that have logFC < −0.5 and P-value < 0.05 are indicated by red dots and the remaining strains are indicated as blue dots. For the sake of clarity, gene names of only a subset of the top hits are indicated in the plot. (B) Wild type strain BY4743 and 24 deletion strains that were sensitive to hypoculoside in the HOP assay, were grown in the YPD medium in the presence of either DMSO or hypoculoside at different concentrations (0, 0.6, 1.3, 2.7 and 5.5 µM). Normalized growth at the different concentrations of hypoculoside tested after 24 hours of incubation at 30 °C is plotted for each strain.
To test the validity of our HOP data, we first identified 336 ‘hypoculoside-sensitive’ mutants (Supplementary Table S1) that had at least a 1.4-fold inhibitory effect on their growth rate (i.e. logFC ≤ −0.5) with a P-value ≤ 0.05. From the list of 336 mutants, we chose 24 mutants that represent different Gene Ontology categories (see below) and tested their sensitivity to hypoculoside. Eighteen of the total 24 mutants were sensitive to hypoculoside confirming the HOP data (Fig. 3B). We also tested mutants that were predicted to be resistant to hypoculoside (positive logFC ≥ 0.5 and P-value ≤ 0.05). But none of them were resistant to hypoculoside in comparison to wild type strain in the single-mutant sensitivity assays (data not shown).
(§1) Figure 5 Structure-activity studies of hypoculoside. (A) Wild type strain (BY4743), vps35Δ, pep8Δ, vps20Δ, vps27Δ and vps36Δ strains were grown in YPD medium in the presence of hypoculoside or hypoculine at the indicated concentrations. Normalized growth at the different concentrations of hypoculoside and hypoculine tested after 24 hours of incubation at 30 °C is plotted for each strain. (B) Wild type strain (BY4743), vps35Δ, pep8Δ, vps20Δ, vps27Δ and vps36Δ strains were grown in YPD medium in the presence of hypoculoside or phytosphingosine or dihydrosphingosine at the indicated concentrations. Normalized growth at the different concentrations of hypoculoside, phytosphingosine and dihydrosphingosine tested after 24 hours of incubation at 30 °C is plotted for each strain.

For assay [3], the system named is Saccharomyces cerevisiae diploid wild-type strain (BY4743). The assay is described as follows: Growth inhibition of wild type Saccharomyces cerevisiae in YPD medium (96-well, OD600). It is filed as cell-based. As to conditions: for concentration that completely inhibited the growth of wild type yeast cells: 24 hours at 30 °C (Fig. 5B); for inhibitory concentration relative to inhibitory concentration of hypoculoside: wild type yeast cells, higher than hypoculoside. As for the experimental part:
as §1
Susceptibility of Candida albicans strain SC5314 to hypoculoside and amphotericin B was determined by a broth microdilution assay using Clinical Laboratory Standards Institute (CLSI) guidelines. Cells grown to exponential phase in YPD medium (1% Yeast extract, 2% Bacto peptone and 2% glucose) were harvested, washed and resuspended in RPMI 1640 medium at a density of 2×10^3 cells/mL. RPMI 1640 medium with L-glutamine without sodium bicarbonate (Sigma) was buffered with 0.165 M morpholinepropanesulfonic acid (MOPS) to a pH of 7.0. Two-fold dilutions of hypoculoside and amphotericin B were prepared such that final concentration of DMSO was 1% in all cultures. Cell suspension was distributed in microtiter plate (200 µL/well) and incubated at 35 °C with 220 rpm for 24 h. The Saccharomyces cerevisiae diploid wild-type strain (BY4743) was used for determining the Inhibitory Concentration (IC) of hypoculoside. Frozen yeast cells were allowed to recover on YPD agar plates and grown in YPD medium for nine generations (OD600 nm ≤ 2). Cells were diluted to OD600 nm of 0.0625 in YPD medium. 200 μL of the diluted yeast culture was transferred into the 96-well microtiter plate having 2-fold serially diluted concentrations of hypoculoside. Cells were incubated in a microplate reader for 16–24 hours at 30 °C with shaking. IC of hypoculoside was computed by comparing the growth of treated versus control cells.

For assay [4], the system named is Wild type strain (BY4743). The assay can be described thus: Rescue of myriocin-induced growth inhibition in yeast. It is filed as cell-based, Saccharomyces cerevisiae. As to conditions: for rescue of myriocin-induced inhibition: added at 10 μM. On the procedure:
Myriocin is an inhibitor of Serine palmitoyltransferase (SPT), which catalyzes the first step in the synthesis of sphingolipid biosynthesis. Addition of PHS or DHS can rescue inhibition caused by myriocin[28]. We tested whether hypoculoside can rescue the toxicity of myriocin–treated cells.
Wild type strain (BY4743) was grown in YPD medium containing different concentrations of myriocin and either phytosphingosine (PHS) or dihydrosphingosine (DHS) or hypoculoside (HYP) at the indicated concentrations. Normalized growth at the different concentrations after 24 hours of incubation at 30 °C is plotted for the various cultures.

The subject of assay [5] is BY4743 cells. The assay can be described thus: Propidium iodide (PI)-staining assay of plasma membrane integrity. As to conditions: 1.8, 3.5 and 5.3 µM, 30′ and 2 hours. It counts as cell-based, Saccharomyces cerevisiae. As for the experimental part: Figure 8 Hypoculoside but not hypoculine disrupts the membrane integrity of yeast cells. (A) Wild type yeast cells pre-treated with either DMSO or hypoculoside (5.4 μM) were exposed to FM 4-64FX. Uptake of FM 4-64FX after 0′, 30′ and 120′ was analyzed by fluorescence microscopy of fixed cells. (B) Yeast cells were incubated with either DMSO or hypoculoside or hypoculine at different concentrations (1.8, 3.5 and 5.3 µM) for 30′ and 2 hours. They were then treated with propidium iodide (PI) and percentage of PI-staining cells was assayed by fluorescence microscopy. Representative images of cells visualized by bright field and fluorescence microscopy are shown along with quantification of PI-staining cells (N = 100 cells) in (C).
We then tested whether hypoculoside causes membrane leakage using the membrane impermeant dye propidium iodide (PI). […] We then incubated the cells with PI and visualized its uptake by fluorescence microscopy. […]
BY4743 cells (OD600 nm ≈ 1) were exposed to various concentrations of hypoculoside or hypoculine or DMSO in YPD for 30′ and 2 hours. […] PI uptake by cells was assayed by bright-field and fluorescence microscopy [Excitation/Emission (nm): 535/617] and the percentage of PI-staining cells (N ≥ 100) was calculated.

Assay [6] has as its system vacuoles of wild type yeast cells. The assay can be described thus: FM 4-64 fluorescence microscopy of vacuolar structure. It is filed as cell-based, Saccharomyces cerevisiae. As to conditions: 11.6 µM, FM 4-64 pre-labelled wild type cells, N = 100 cells. On the procedure: As several vacuolar transport mutants were sensitive to hypoculoside (Fig. 3), we examined the effect of hypoculoside on the vacuolar structure of yeast cells. We incubated wild type yeast cells with FM 4–64, a dye that stains the vacuolar membranes, for 1 hour. We then washed off the excess FM 4–64 from the medium and transferred the cells into fresh medium with either hypoculoside or hypoculine or DMSO. […] In contrast, about 50% of 11.6 µM hypoculoside-treated cells had defective vacuoles (Fig. 7B). However, only 3% of 11.6 µM hypoculine-treated cells had defective vacuoles. Thus, the effect of hypoculoside and hypoculine on vacuolar structure correlates with their inhibitory activities.
Figure 7 Hypoculoside but not hypoculine disrupts the vacuolar structure of yeast cells. Wild type yeast cells containing vacuoles pre-labelled with the lipophilic dye FM 4-64 were exposed to either DMSO or hypoculoside or hypoculine at the indicated concentrations for 1 hour. Effects of the compounds on vacuolar morphology was analyzed by fluorescence microscopy. […] (B) Quantification of the various categories for cells treated with either DMSO or hypoculoside or hypoculine is plotted (N = 100 cells). […]
Labeling of yeast cells with FM4-64 (Invitrogen) was done as previously reported. […] The images were acquired using an inverted fluorescence microscope ZEISS LSM 5 LIVE (Carl Zeiss, Oberkochen, Germany).

Assay [7] deals with fungi. Details: method as in PMID 10654417. As to conditions: cited from earlier work.
Assay [8] deals with Candida albicans strain SC5314. The assay is described as follows: Broth microdilution growth inhibition of Candida albicans (CLSI guidelines, OD600 after 24 h). It is filed as cell-based. As to conditions: strain SC5314, OD600 nm after 24 hours, read-out: IC50 for inhibition of growth of C. albicans cells. On the procedure:
Figure 2 Hypoculoside has antifungal activity. (A) Workflow used in the purification and analysis of hypoculoside from Acremonium sp. F2434. (B) Structure of hypoculoside (8) and its aglycone derivative hypoculine (9). (C) Logarithmically growing Candida albicans cells were exposed to hypoculoside and amphotericin B at various concentrations in triplicates in a 96-well microplate. Growth of the cells was quantified by recording the absorbance at 600 nm after 24 hours. Growth (normalized with respect to DMSO-treated cells) is plotted against log of concentration of the compound. A picture of the microplate after 24 hours of incubation at 30 °C is shown in Supplementary Fig. S2A. (D) Effect of hypoculoside on the growth of Saccharomyces cerevisiae cells grown in YPD medium was analyzed in the similar way as for Candida albicans described above in C.
We evaluated the potency of hypoculoside by examining its effect on the growth of Candida albicans strain (SC5314) using the Clinical and Laboratory Standards Institute (CLSI) guidelines. We used the well-known antifungal amphotericin B as a positive control. We exposed logarithmically growing Candida albicans cells to hypoculoside and amphotericin B at various concentrations and monitored the growth by recording the OD600 nm after 24 hours. […]
(In general: Broth dilution looks for growth in wells or tubes with falling amounts of substance.)

For assay [9], the system named is cancer cell lines. Details: method as in PMID 18343365. As to conditions: cited from earlier work.

For the molecule `CCCCCCCCCCCCCCC[C@@H](O)[C@@H](N)CO` [DHS, dihydrosphingosine, reference compound], the “growth inhibition of Staphylococcus aureus” value (“growth inhibition” below) in assay [1] is “inhibit the growth”. The “growth of the 5 hypoculoside-sensitive mutants compared with wild type strain” value in assay [2] is recorded as “lower in comparison to wild type strain”. Also, in [3] (BY4743, YPD), the “concentration that completely inhibited the growth of wild type yeast cells” value came to 40 µM. Moreover, the “inhibitory concentration relative to inhibitory concentration of hypoculoside” value in assay [3] is listed as “about 4 fold”. Further, in assay [4], the “rescue of myriocin-induced inhibition” value was “completely rescued”.
With `CC(N)C(O)CCCCCCCCCCCCCCCCCCC(O)C(C)O` (stereo not shown) [hypoculine], the “cells with PI staining” value in assay [5] is “less than 10%”. Besides, the “concentration at which mutants still displayed significant growth” value in assay [2] (mutants except for pep8 and vps35 (vps20, vps27, vps36), YPD, 24 hours at 30 °C) is over 200 µM. The “cells with defective vacuoles” value in [6] was found to be 3%. The “concentration that inhibited the growth of wild type cells” value in assay [3] (BY4743, YPD, 24 hours at 30 °C (Fig. 5A)) was over 200 µM.
For the molecule `C[C@@H](N)[C@H](O)CCCCCCCCCCCCCCC(=O)CCCCCCC[C@@H](O)[C@@H](N)CO` [Oceanin], the “toxicity to fungi compared with oceanapiside” value in assay [7] is “considerably more toxic to fungi”.
In the case of `CCCCCCCCCCCCCC[C@@H](O)[C@@H](O)[C@@H](N)CO` [PHS, phytosphingosine, reference compound], the “growth inhibition” value in [1] was “inhibit the growth”. The “growth of the 5 hypoculoside-sensitive mutants compared with wild type strain” value in assay [2] is “lower in comparison to wild type strain”. Besides, the “concentration that completely inhibited the growth of wild type yeast cells” value in assay [3] (BY4743, YPD) came to 40 µM. Moreover, the “inhibitory concentration relative to inhibitory concentration of hypoculoside” value in assay [3] is “about 4 fold”. Besides, the “rescue of myriocin-induced inhibition” value in assay [4] is reported as “completely rescued”.
As to `CCCCCCC(=O)CCCCCC/C=C/C[C@@H](O)[C@H](O)[C@@](N)(CO)C(=O)O` [Myriocin], the “concentration that inhibited the growth of yeast cells” value in assay [4] (wild type BY4743, YPD, 24 hours at 30 °C) was 3.11 µM.
In the case of `CCCCCCCCCCCCC/C=C/[C@@H](O)[C@@H](N)CO` [sphingosine, (2S,3R,4E)-2-amino-4-octadecen-1,3-diol], the “growth inhibition” value in assay [1] was “inhibit the growth”.
For the molecule `C[C@@H]1[C@H](O)[C@@H](C)/C=C/C=C/C=C/C=C/C=C/C=C/C=C/[C@H](O[C@@H]2O[C@H](C)[C@@H](O)[C@H](N)[C@@H]2O)C[C@@H]2O[C@](O)(C[C@@H](O)C[C@@H](O)[C@H](O)CC[C@@H](O)C[C@@H](O)CC(=O)O[C@H]1C)C[C@H](O)[C@H]2C(=O)O` [amphotericin B, reference compound], the IC50 (commonly the concentration needed to halve the response being measured) in [8] was 32 nM.
`CCCCCCCCCCCCCCC[C@@H](O)[C@H](C)N` [spisulosine, 1-deoxysphinganine]: in assay [9], the “activity against cancer cell lines” value is reported as “potent activity”.
